These are literature values, as cited in patent US20110038945A1, “Orally ingestable medicament and method for treating a heartburn inducing event or an acid reflux episode in a living human subject” (priority 2009, published 2011).

The structures appear in SMILES notation.

Take `COc1cc(N)c(Cl)cc1C(=O)NC1CCN(CCCOc2ccc(F)cc2)CC1OC` (centres unmarked) [cisapride]: the deaths entry (included in the heart rhythm abnormality reports) was “more than 80 deaths”. Also, the “reports of heart rhythm abnormalities” value (linked to the drug at recall from the U.S. market in 2000) was “more than 300 reports”.
